Format in all cases: cell-based
Assay [1] has as its system SKOV3. The experiment in a line: Crystal violet staining, cell survival rate and cell count, parental line. The following applies: 0.05 μM paclitaxel or 0.5 μM doxetaxel, 3 days, compared to None or DMSO-treated groups. Here is the method: (§1) The two cancer cell lines growing on a 12-well plate were pretreated with 102 S-forms at a low concentration (0.5 μM) and a high concentration (2 μM) for 4 hours, and the SKOV3-TR cell line was then treated with 4 μM paclitaxel, and the SKOV3 cell line was treated with 0.05 μM paclitaxel. For the morphological analysis of the cells, the cells treated with None (a group that was treated with nothing), DMSO (a paclitaxel solvent), ethanol (EtOH) (an S-form solvent), DMSO+EtOH, paclitaxel, paclitaxel+ethanol (Pacli+EtOH), and 102 S-forms were analyzed after 1, 2, and 3 days, and images were captured. […] The cell survival rates were analyzed on the same experimental groups using a crystal violet staining method.
The two cell lines growing on a 12-well plate were pretreated with an S-form at a low concentration (0.5 μM) and a high concentration (2 μM) for 4 hours, and the SKOV3-TR cell line was then treated with 0.9 μM doxetaxel, and the SKOV3 cell line was treated with 0.5 μM doxetaxel. For the morphological analysis of the cells, the cells treated with None (a group that was treated with nothing), DMSO (a doxetaxel solvent), ethanol (EtOH) (an S-form solvent), DMSO+EtOH, doxetaxel, doxetaxel+ethanol (Doxetaxel+EtOH), and S-forms were analyzed after 1, 2, and 3 days, and images were captured. […]

Assay [2] deals with SKOV3-TR. The assay can be described thus: Crystal violet staining, cell survival rate and cell count, resistant line. Conditions: 3 days; for optical density at 570 nm (crystal violet), anticancer drug alone: 4 μM paclitaxel or 0.9 μM doxetaxel, compared to None or DMSO-treated groups; for anticancer-enhancing effect of doxetaxel, optical density at 570 nm (crystal violet) / anticancer-enhancing effect of paclitaxel, optical density at 570 nm (crystal violet): S-form 0.5 μM or 2 μM pretreated 4 hours; for anticancer-enhancing effect of doxetaxel, optical density at 570 nm (crystal violet): then 0.9 μM doxetaxel, compared to doxetaxel+ethanol group; for anticancer-enhancing effect of paclitaxel, optical density at 570 nm (crystal violet): then 4 μM paclitaxel, compared to paclitaxel+ethanol group. Here is the method:
The two cancer cell lines growing on a 12-well plate were pretreated with 102 S-forms at a low concentration (0.5 μM) and a high concentration (2 μM) for 4 hours, and the SKOV3-TR cell line was then treated with 4 μM paclitaxel, and the SKOV3 cell line was treated with 0.05 μM paclitaxel. For the morphological analysis of the cells, the cells treated with None (a group that was treated with nothing), DMSO (a paclitaxel solvent), ethanol (EtOH) (an S-form solvent), DMSO+EtOH, paclitaxel, paclitaxel+ethanol (Pacli+EtOH), and 102 S-forms were analyzed after 1, 2, and 3 days, and images were captured. For cellular metabolism analysis, WST-1 analyses were performed after 3 days of the combined treatment with paclitaxel and S-forms. The cell survival rates were analyzed on the same experimental groups using a crystal violet staining method.
The two cell lines growing on a 12-well plate were pretreated with an S-form at a low concentration (0.5 μM) and a high concentration (2 μM) for 4 hours, and the SKOV3-TR cell line was then treated with 0.9 μM doxetaxel, and the SKOV3 cell line was treated with 0.5 μM doxetaxel. For the morphological analysis of the cells, the cells treated with None (a group that was treated with nothing), DMSO (a doxetaxel solvent), ethanol (EtOH) (an S-form solvent), DMSO+EtOH, doxetaxel, doxetaxel+ethanol (Doxetaxel+EtOH), and S-forms were analyzed after 1, 2, and 3 days, and images were captured. For cellular metabolism analysis, WST-1 analyses were performed after 3 days of the combined treatment with doxetaxel and S-forms. The cell survival rates were analyzed on the same experimental groups using a crystal violet staining method.
Based on the crystal violet staining in which the cell survival rates and the cell counts were analyzed, a decrease in cell counts in SKOV3-TR and SKOV3 by treatment with paclitaxel was induced through a decrease in cell survival rate. […] The crystal violet staining results of SKOV3-TR by treatment with paclitaxel are shown in FIG. 11, and the crystal violet staining results of SKOV3 are shown in FIG. 12. The crystal violet staining results of SKOV3-TR by treatment with doxetaxel are shown in FIG. 25, and the crystal violet staining results of SKOV3 are shown in FIG. 26.
The optical densities at 570 nm were reduced with the decreasing cell counts in the paclitaxel-treated groups due to the phenomena such as the induction of cell death and the inhibition of cell growth in SKOV3-TR and SKOV3, compared to the None or DMSO-treated groups. […] Also, it can be seen that the dose-response relationship was satisfied because a decrease in cell survival rate by paclitaxel in SKOV3-TR was further promoted at a high concentration (2 μM) of the S-forms as compared to a low concentration (0.5 μM) of the S-forms. For the purpose of analysis, images of the 102 experimental groups after the cell lines were stained with crystal violet were captured after 3 days of the treatment. The staining degree was determined by ELISA by measuring the optical densities at 570 nm through dye elution as in the WST-1 analysis. During the ELISA analysis, the baseline was applied to the optical density of the paclitaxel+ethanol (Pacli+EtOH)-treated group as the control group. The optical density results of SKOV3-TR by treatment with the 102 S-forms and the optical density results of SKOV3 by treatment with the 102 S-forms are shown in FIGS. 13 to 20.
The optical densities at 570 nm were reduced with the decreasing cell counts in the doxetaxel-treated groups due to the phenomena such as the induction of cell death and the inhibition of cell growth in SKOV3-TR and SKOV3, compared to the None or DMSO-treated groups. […] Also, it can be seen that the dose-response relationship was satisfied because a decrease in cell survival rate by doxetaxel in SKOV3-TR was further promoted at a high concentration (2 μM) of the S-forms as compared to a low concentration (0.5 μM) of the S-forms. […]

Assay [3] concerns SKOV3. The assay can be described thus: WST-1 analysis of cellular metabolism, parental line. The following applies: 0.05 μM paclitaxel or 0.5 μM doxetaxel, 3 days, compared to None or DMSO-treated groups. Here is the method:
(§2) A cell experiment was performed on an epithelial ovarian cancer cell line SKOV3 and SKOV3-TR which is derived therefrom and produced as a resistant cancer cell line to having resistance to the anticancer drug paclitaxel.
as §1
(§3) The two cell lines growing on a 12-well plate were pretreated with an S-form at a low concentration (0.5 μM) and a high concentration (2 μM) for 4 hours, and the SKOV3-TR cell line was then treated with 0.9 μM doxetaxel, and the SKOV3 cell line was treated with 0.5 μM doxetaxel. […] The cell survival rates were analyzed on the same experimental groups using a crystal violet staining method. […]
(Tetrazolium dyes change colour on reduction, which living cells bring about.)

In assay [4] the test system is SKOV3-TR. The experiment in a line: WST-1 analysis of cellular metabolism, resistant line. Conditions: 4 μM paclitaxel or 0.9 μM doxetaxel, 3 days, compared to None or DMSO-treated groups. Here is the method:
as §2, §1, §3

In the case of `CC(=O)O[C@H]1C(=O)[C@@]2(C)[C@H]([C@H](OC(=O)c3ccccc3)[C@]3(O)C[C@H](OC(=O)[C@H](O)[C@@H](NC(=O)c4ccccc4)c4ccccc4)C(C)=C1C3(C)C)[C@]1(OC(C)=O)CO[C@@H]1C[C@@H]2O` [paclitaxel], the “optical density at 570 nm (crystal violet), anticancer drug alone” value in the assay on SKOV3 [1] and in the assay on SKOV3-TR [2] was “reduced” in each case. The “optical density at 450 nm (WST-1), anticancer drug alone” value with SKOV3 [3] and with SKOV3-TR [4] was “reduced” each time.
Take `CCc1sc2ccccc2c1CN1CCN2C(=O)CNC(=O)C2C1` (stereo not drawn) [S101, 2-((2-ethylbenzothiophene-3-yl)methyl)hexahydro-2H-pyrazino[1,2-a]pyrazine-6,9-dione]: in the assay with SKOV3-TR [2], the “anticancer-enhancing effect of doxetaxel, optical density at 570 nm (crystal violet)” value was “exhibited the anticancer-enhancing effect” and the “anticancer-enhancing effect of paclitaxel, optical density at 570 nm (crystal violet)” value is recorded as “exhibited the anticancer-enhancing effect”.
As for `CCc1sc2ccccc2c1CN1CCN2C(=O)C(C3CCCCC3)NC(=O)C2C1` (stereo not drawn) [S105], in the assay on SKOV3-TR [2], the “anticancer-enhancing effect of doxetaxel, optical density at 570 nm (crystal violet)” value was “exhibited the anticancer-enhancing effect” and the “anticancer-enhancing effect of paclitaxel, optical density at 570 nm (crystal violet)” value is listed as “exhibited the anticancer-enhancing effect”.
For the compound `CC(=O)O[C@@]12CO[C@@H]1C[C@H](O)[C@@]1(C)C(=O)[C@H](O)C3=C(C)[C@@H](OC(=O)[C@H](O)[C@@H](NC(=O)OC(C)(C)C)c4ccccc4)C[C@@](O)([C@@H](OC(=O)c4ccccc4)[C@H]21)C3(C)C` [doxetaxel], the “optical density at 570 nm (crystal violet), anticancer drug alone” value in the assay with SKOV3 [1] and with SKOV3-TR [2] was “reduced” in each case. Further, the “optical density at 450 nm (WST-1), anticancer drug alone” value with SKOV3 [3] and with SKOV3-TR [4] was “reduced” each time.

These data come from patent US20230019094A1, “NOVEL COMPOUND AND PHARMACEUTICAL COMPOSITION FOR PREVENTION OR TREATMENT OF CANCER COMPRISING SAME” (HOLOSMEDIC, priority 2019, published 2023).
